The values below come from patent US20070135383A1, “Phospholipase inhibitors, including multi-valent phospholipase inhibitors, and use thereof, including as lumen-localized phospholipase inhibitors” (priority 2005, published 2007).

For one series, the system named is PL A2. The following applies: range given in words, art-known PL A2 inhibitors; cited from earlier work.
Series [1] deals with T1, human group 1B PLA2 (hps PLA2) (Homo sapiens, UniProt P04054).
T1 construct: made in house; host or cells: E. coli
T1 sequence (P04054 23-148): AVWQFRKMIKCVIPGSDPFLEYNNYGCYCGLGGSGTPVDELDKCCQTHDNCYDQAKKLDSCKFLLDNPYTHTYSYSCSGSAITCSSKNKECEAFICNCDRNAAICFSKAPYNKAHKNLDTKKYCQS
Put plainly: Fluorimetric PPyrPM assay for group 1B PLA2 inhibition (Example 12). The class given is biochemical.

In series [2] the target is T2, mouse group 1B PLA2 (mps PLA2) (Mus musculus, UniProt Q9Z0Y2).
T2 construct: made in house; host or cells: E. coli
T2 sequence (Q9Z0Y2 23-146): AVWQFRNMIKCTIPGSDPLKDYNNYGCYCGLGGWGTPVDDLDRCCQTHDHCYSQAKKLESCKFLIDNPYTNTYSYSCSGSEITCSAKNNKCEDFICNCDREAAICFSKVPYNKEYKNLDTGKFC
The description is as above. It counts as biochemical.

Series [3] addresses T3, porcine group 1B PLA2 (pps PLA2) (Sus scrofa, UniProt P00592).
T3 construct: purchased
Described as above. The class given is biochemical. The procedure, abridged: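 Porcine group 1B PLA2 hydrolysis of 4.2 uM PPyrPM vesicle solution (pre-mixing concentration) in 50 mM Tris-HCl pH 8.0, 50 mM KCl, 1 mM CaCl2 with BSA; inhibitors in 8-point threefold series from 15 uM. After 3 min at 37 °C, fluorescence read at ex 342/em 395 nm; duplicate IC50 by four-parameter fit.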

Series [4] is described as follows: Mouse pharmacokinetic study, IV vs oral (Example 18). The class given is in vivo, male CD-1 mice. Conditions: PO 30 mg/kg vs IV 3 mg/kg, serum by LC/MS/MS; for bioavailability: male, CD-1, mouse. As to the method:
The plasma exposure of male CD-1 mice to indole and indole-related test articles (TAs) following intravenous (IV, 3 mg/kg) and oral (PO, 30 mg/kg) routes of administration was measured. This model was used to investigate the bioavailability of indole and indole-related TAs in mouse. Mice were selected for the study since they are an accepted species frequently used in pre-clinical evaluation of drugs intended for human use.
Male CD-1 mice (7-8 weeks old) were obtained from Charles River Laboratories (Wilmington, Mass.). Two groups (N=18 and 27) of male CD-1 mice were used for the study. Upon arrival, the animals were placed on Rodent Diet 5001 (Purina Mills, Inc., St. Louis, Mo.).
On study day (−1), indole and indole-related TAs were formulated for oral or IV dosing by mixing the formulation components with test article in the proportions described in Table 10.1. The components were mixed by vortexing and sonicating in a warming bath for 60 minutes. Animals were fasted overnight prior to start of the study. On study day (1), formulations were sonicated for an hour to make sure that no visible particles were present prior to dosing, or if present were evenly distributed in suspension. Formulated test article were stirred continuously during dosing.
All animals were weighed on study day (1) and the body weights were recorded and used for dose calculation. The animals were dosed by either PO or IV route as outlined in Table 10.2. Blood samples (0.5 mL) were collected at specified time intervals into labeled, yellow-capped Microtainer tubes. The tubes were centrifuged (8,000×g, 10 min). Serum was then pipetted off into labeled Eppendorf® tubes and frozen at −80° C. Clinical observations were recorded as needed.
Analysis of serum samples was performed by LC/MS/MS (Waters Quattro Premier, Milford, Mass.). Areas under curves (AUC) were calculated using Graphpad Prism Version 4. Bioavailability was calculated using the following equation: (Bioavailability)=(AUC0-t,oral/AUC0-t,iv)×(Doseiv/Doseoral)×100
where AUC0-t=total area under curve at the last measurable time point

The mark [5] stands for this setting: human pancreas secreted PLA2, read-out: ILYPSA IC50 hps PLA2.
[6] abbreviates: mouse pancreas secreted PLA2, read-out: ILYPSA IC50 mps PLA2.
[7] abbreviates: porcine pancreas secreted PLA2, read-out: ILYPSA IC50 pps PLA2.

Where two headings read alike, the source gives them in different places.

T3 sequence (P00592 23-146): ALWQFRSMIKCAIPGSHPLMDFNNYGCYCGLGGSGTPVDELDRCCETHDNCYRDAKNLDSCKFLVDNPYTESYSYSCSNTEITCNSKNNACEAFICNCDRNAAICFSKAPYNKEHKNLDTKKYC

As to `C=CCN(CC(=O)OCC)C(=O)COc1ccc(C(=O)OCc2ccccc2)cc1`, in the series on PL A2, the 50% inhibitory concentration (IC50) (commonly the concentration at which inhibition is half-maximal) was “μM range”.

`Cc1c(C(=O)C(N)=O)c2c(OCC(=O)O)cccc2n1CCCCCCCCCCCCOc1ccc(C(C)(C)c2ccc(OCCCCCCCCCCCCn3c(C)c(C(=O)C(N)=O)c4c(OCC(=O)O)cccc43)cc2)cc1` [ILY-V-30, 2,2′-(1,1′-(12,12′-(4,4′-(propane-2,2-diyl)bis(4,1-phenylene))bis(oxy)bis(dodecane-12,1-diyl))bis(3-(2-amino-2-oxoacetyl)-2-methyl-1H-indole-4,1-diyl))bis(oxy)diacetic acid]: the IC50 in series [1] (setting [5]) is 430 nM; in series [2] (setting [6]) it was 190 nM; in series [3] (setting [7]), less than 20 nM. For the same compound, the bioavailability (in general, dose-corrected exposure relative to a reference, in per cent) in series [4] (in vivo) worked out at 0%.

For `CCc1c(CC(N)=O)c2cc(OCCCP(=O)(O)O)ccc2n1Cc1ccccc1` [LY-311727], in the series with PL A2, the IC50 entry is on record as “sub μM range”.

With `Cc1c(C(=O)C(N)=O)c2c(OC(C(=O)O)C(C)C)cccc2n1CCCCCCCCCCCCOc1ccccc1OCCCCCCCCCCCCn1c(C)c(C(=O)C(N)=O)c2c(OC(C(=O)O)C(C)C)cccc21` (stereo not shown) [ILY-V-33, 2,2′-(1,1′-(12,12′-(1,2-phenylenebis(oxy))bis(dodecane-12,1-diyl))bis(3-(2-amino-2-oxoacetyl)-2-methyl-1H-indole-4,1-diyl))bis(oxy)bis(3-methylbutanoic acid)], the concentration for half-maximal inhibition (IC50) stood at 220 nM in series [1] (setting [5]), 200 nM in series [2] (setting [6]) and 240 nM in series [3] (setting [7]). Moreover, in series [4] (in vivo), the bioavailability was 8.75%.

In the case of `Cc1c(C(=O)C(N)=O)c2c(OCC(=O)O)nccc2n1Cc1ccccc1` [ILY-II-1, (3-Aminooxalyl-1-benzyl-2-methyl-1H-pyrrolo[3,2-c]pyridin-4-yloxy)-acetic acid], the half-maximal inhibitory concentration (IC50) in series [1] was 1150 nM; in series [2] it was 230 nM; in series [3], 70 nM. Further, the bioavailability in series [4] is 11%.

Consider `Cc1c(C(=O)C(N)=O)c2c(OCC(=O)O)cccc2n1CCCCCCCCCCCCOc1cc(OCCCCCCCCCCCCn2c(C)c(C(=O)C(N)=O)c3c(OCC(=O)O)cccc32)cc(OCCCCCCCCCCCCn2c(C)c(C(=O)C(N)=O)c3c(OCC(=O)O)cccc32)c1` [ILY-V-32, 2,2,′,2″-(1,1′,1″-(12,12′,12″-(benzene-1,3,5-triyltris(oxy))tris(dodecane-12,1-diyl))tris(3-(2-amino-2-oxoacetyl)-2-methyl-1H-indole-4,1-diyl))tris(oxy)triacetic acid], for which the IC50 was determined as 60 nM in series [1] (setting [5]), 130 nM in series [2] (setting [6]) and 90 nM in series [3] (setting [7]). In addition, the “Bioavailability (%)” value in series [4] was determined as 0.00%.

Turning to `Cc1c(C(=O)C(N)=O)c2c(OCC(=O)O)cccc2n1CCCCCCCCCCCCOc1ccccc1OCCCCCCCCCCCC(=O)O` [ILY-V-41, 12-{2-[12-(3-Aminooxalyl-4-carboxymethoxy-2-methyl-indol-1-yl)-dodecyloxy]-phenoxy}-dodecanoic acid], the IC50 came out at 1540 nM in series [1] (setting [5]), 1600 nM in series [2] (setting [6]) and 1140 nM in series [3] (setting [7]). This compound gave a bioavailability in series [4] (in vivo) of 1.62%.

For the compound `CCN(CC)CCN(Cc1ccc(-c2ccc(C(F)(F)F)cc2)cc1)C(=O)Cn1cc(Cc2ccn(C)n2)c(=O)nc1SCc1ccc(F)cc1` [GB-480848], the IC50 result with PL A2 is recorded as “nM or subnM range”.

`Cc1c(C(=O)C(N)=O)c2c(OCC(=O)NS(C)(=O)=O)nccc2n1Cc1ccccc1-c1ccccc1` [ILY-II-14, 2-(3-(2-amino-2-oxoacetyl)-1-(biphenyl-2-ylmethyl)-2-methyl-1H-pyrrolo[3,2-c]pyridin-4-yloxy)-N-(methylsulfonyl)acetamide]: the figures for the concentration for half-maximal inhibition (IC50) in series [1], in series [2] and in series [3] were 690 nM, 590 nM and 40 nM, respectively. In series [4], this compound came in with a bioavailability of 14.7%.

`Cc1c(C(=O)C(N)=O)c2c(OCC(=O)O)cccc2n1CCCCCCCCCCCCOc1ccccc1-c1ccccc1OCCCCCCCCCCCCn1c(C)c(C(=O)C(N)=O)c2c(OCC(=O)O)cccc21` [ILY-V-37, [3-Aminooxalyl-1-(12-{2′-[12-(3-aminooxalyl-4-carboxymethoxy-2-methyl-indol-1-yl)-dodecyloxy]-biphenyl-2-yloxy}-dodecyl)-2-methyl-1H-indol-4-yloxy]-acetic acid]: the figures for the 50% inhibitory concentration (IC50) in series [1] (setting [5]), in series [2] (setting [6]) and in series [3] (setting [7]) were 270 nM, 230 nM and 200 nM, respectively. In series [4] (in vivo), this compound came in with a bioavailability of 0.15%.
